Bridge positions count the residues as written; N and C are the ends. Square brackets hold non-standard residues; d marks the D form. Peptide text beside a SMILES is read from it. * marks the point of attachment. Phe(3,4,5-F3) = N[C@@H](Cc1cc(F)c(F)c(F)c1)C(=O)O; Bip = N[C@@H](Cc1ccc(-c2ccccc2)cc1)C(=O)O; Phe(3-CN) = N#Cc1cccc(C[C@H](N)C(=O)O)c1; Phe(3-Me) = Cc1cccc(C[C@H](N)C(=O)O)c1; Val(3-OH) = CC(C)(O)[C@H](N)C(=O)O; 4Pal = N[C@@H](Cc1ccncc1)C(=O)O; Aad = N[C@@H](CCCC(=O)O)C(=O)O; Cha = N[C@@H](CC1CCCCC1)C(=O)O; aThr = C[C@H](O)[C@H](N)C(=O)O; Carboxymethyl = O=C(O)C*; Orn = NCCC[C@H](N)C(=O)O; Aun = NCCCCCCCCCCC(=O)O; Dab = NCC[C@H](N)C(=O)O; Nva = CCC[C@H](N)C(=O)O
Each compound was assayed against T1, PD-1/PD-L1 interaction (PE-labeled human PD-L1-Ig binding to Jurkat cell line over-expressing human PD-1) (Homo sapiens, UniProt Q15116) (assay: Jurkat-PD-1 Cell Binding High-Content Screening Assay (CBA)). Conditions: Jurkat cell line over-expressing human PD-1; PE-labeled PD-L1-Ig 20 nM final; read-out: Jurkat hPD1-PDL1 IC50.
T1 construct: expressed in transfected cells; host or cells: Jurkat
T1 sequence (Q15116 25-288): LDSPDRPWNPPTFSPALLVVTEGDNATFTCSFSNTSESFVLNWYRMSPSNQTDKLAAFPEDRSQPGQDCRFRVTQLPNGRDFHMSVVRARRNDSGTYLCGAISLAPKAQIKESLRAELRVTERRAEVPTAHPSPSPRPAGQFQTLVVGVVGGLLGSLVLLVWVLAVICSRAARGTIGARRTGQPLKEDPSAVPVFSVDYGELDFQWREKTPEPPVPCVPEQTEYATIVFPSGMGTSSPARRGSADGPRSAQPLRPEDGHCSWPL
Assay type: cell-based
Procedure, shortened: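 Human PD-L1-Ig carrying a covalent PE label on its Ig tag serves as the probe, applied at 20 nM final to compound-treated (2 h, 37° C) Jurkat-hPD-1 cells in medium with 10% fetal calf serum. After one hour, fixation and nuclear staining precede high-content image analysis.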
`Cc1cccc(C[C@@H]2NC(=O)[C@H](CC(=O)O)NC(=O)[C@H](Cc3cccc(C#N)c3)NC(=O)[C@H](Cc3ccncc3)NC(=O)CSC[C@@H](C(=O)N[C@@H](CCN)C(=O)NCCCCCCCCCCC(=O)O)NC(=O)[C@H](CO)NC(=O)[C@H](C(C)(C)O)NC(=O)[C@H](CC3CCCCC3)NC(=O)[C@H](CCN)NC(=O)[C@@H](CC(C)C)NC(=O)[C@H](CCCN)NC(=O)[C@H](Cc3ccc(OCC(=O)O)cc3)NC(=O)[C@H](Cc3ccc(-c4ccccc4)cc3)NC(=O)[C@H](Cc3ccc(OCC(=O)O)cc3)NC2=O)c1` [Compound 2195] ({CH2CO}-[4Pal][Phe(3-CN)]D[Phe(3-Me)]Y(Carboxymethyl)[Bip]Y(Carboxymethyl)[Orn][dL][Dab][Cha][Val(3-OH)]SC[Dab][Aun]-OH; thioether N-14) showed an IC50 of 11.8 nM.
`Cc1cccc(C[C@@H]2NC(=O)[C@H](CC(=O)O)NC(=O)[C@H](Cc3cccc(C#N)c3)NC(=O)[C@H]([C@@H](C)O)NC(=O)CSC[C@@H](C(=O)N[C@@H](CCN)C(=O)NCCCCCCCCCCC(=O)O)NC(=O)[C@H](CO)NC(=O)[C@H](C(C)(C)O)NC(=O)[C@H](CC3CCCCC3)NC(=O)[C@H](CCN)NC(=O)[C@@H](CC(C)C)NC(=O)[C@H](CCCN)NC(=O)[C@H](Cc3ccc(OCC(=O)O)cc3)NC(=O)[C@H](Cc3ccc(-c4ccccc4)cc3)NC(=O)[C@H](Cc3ccc(OCC(=O)O)cc3)NC2=O)c1` [Compound 2196] ({CH2CO}-T[Phe(3-CN)]D[Phe(3-Me)]Y(Carboxymethyl)[Bip]Y(Carboxymethyl)[Orn][dL][Dab][Cha][Val(3-OH)]SC[Dab][Aun]-OH; thioether N-14) showed an IC50 of 24.4 nM.
With `COc1ccc(C[C@@H]2NC(=O)[C@H](Cc3ccncc3)NC(=O)CSC[C@@H](C(=O)N[C@@H](CCN)C(=O)NCCCCCCCCCCC(=O)O)NC(=O)[C@H](CO)NC(=O)[C@H](C(C)(C)O)NC(=O)[C@H](CC3CCCCC3)NC(=O)[C@H](CCN)NC(=O)[C@@H](CC(C)C)NC(=O)[C@H](CCCN)NC(=O)[C@H](Cc3ccc(OCC(=O)O)cc3)NC(=O)[C@H](Cc3ccc(-c4ccccc4)cc3)NC(=O)[C@H](Cc3ccc(OCC(=O)O)cc3)NC(=O)[C@H](Cc3cccc(C)c3)NC(=O)[C@H](CC(=O)O)NC2=O)cc1` [Compound 2197] ({CH2CO}-[4Pal]Y(Me)D[Phe(3-Me)]Y(Carboxymethyl)[Bip]Y(Carboxymethyl)[Orn][dL][Dab][Cha][Val(3-OH)]SC[Dab][Aun]-OH; thioether N-14) the IC50 was 15.1 nM.
`Cc1cccc(C[C@@H]2NC(=O)[C@H](CC(=O)O)NC(=O)[C@H](CCCC(=O)O)NC(=O)[C@H]([C@@H](C)O)NC(=O)CSC[C@@H](C(=O)N[C@@H](CCN)C(=O)NCCCCCCCCCCC(=O)O)NC(=O)[C@H](CO)NC(=O)[C@H](C(C)(C)O)NC(=O)[C@H](CC3CCCCC3)NC(=O)[C@H](CCN)NC(=O)[C@@H](CC(C)C)NC(=O)[C@H](CCCN)NC(=O)[C@H](Cc3ccc(OCC(=O)O)cc3)NC(=O)[C@H](Cc3ccc(-c4ccccc4)cc3)NC(=O)[C@H](Cc3ccc(OCC(=O)O)cc3)NC2=O)c1` [Compound 2198] ({CH2CO}-T[Aad]D[Phe(3-Me)]Y(Carboxymethyl)[Bip]Y(Carboxymethyl)[Orn][dL][Dab][Cha][Val(3-OH)]SC[Dab][Aun]-OH; thioether N-14) gave an IC50 of 48.1 nM.
`Cc1cccc(C[C@@H]2NC(=O)[C@H](CC(=O)O)NC(=O)[C@H](Cc3ccc(OCC(=O)O)cc3)NC(=O)[C@H](Cc3cc(F)c(F)c(F)c3)NC(=O)CSC[C@@H](C(=O)N[C@@H](CCN)C(=O)NCCCCCCCCCCC(=O)O)NC(=O)[C@H](CO)NC(=O)[C@H](C(C)(C)O)NC(=O)[C@H](CC3CCCCC3)NC(=O)[C@H](CCN)NC(=O)[C@@H](CC(C)C)NC(=O)[C@H](CCCN)NC(=O)[C@H](Cc3ccc(OCC(=O)O)cc3)NC(=O)[C@H](Cc3ccc(-c4ccccc4)cc3)NC(=O)[C@H](Cc3ccc(OCC(=O)O)cc3)NC2=O)c1` [Compound 2199] ({CH2CO}-[Phe(3,4,5-F3)]Y(Carboxymethyl)D[Phe(3-Me)]Y(Carboxymethyl)[Bip]Y(Carboxymethyl)[Orn][dL][Dab][Cha][Val(3-OH)]SC[Dab][Aun]-OH; thioether N-14) was tested, and the IC50 was 50 nM.
Compound `Cc1cccc(C[C@@H]2NC(=O)[C@H](CC(=O)O)NC(=O)[C@H](Cc3cc(F)c(F)c(F)c3)NC(=O)[C@H](Cc3ccncc3)NC(=O)CSC[C@@H](C(=O)N[C@@H](CCN)C(=O)NCCCCCCCCCCC(=O)O)NC(=O)[C@H](CO)NC(=O)[C@H](C(C)(C)O)NC(=O)[C@H](CC3CCCCC3)NC(=O)[C@H](CCN)NC(=O)[C@@H](CC(C)C)NC(=O)[C@H](CCCN)NC(=O)[C@H](Cc3ccc(OCC(=O)O)cc3)NC(=O)[C@H](Cc3ccc(-c4ccccc4)cc3)NC(=O)[C@H](Cc3ccc(OCC(=O)O)cc3)NC2=O)c1` [Compound 2200] ({CH2CO}-[4Pal][Phe(3,4,5-F3)]D[Phe(3-Me)]Y(Carboxymethyl)[Bip]Y(Carboxymethyl)[Orn][dL][Dab][Cha][Val(3-OH)]SC[Dab][Aun]-OH; thioether N-14) has an IC50 of 28.8 nM.
Compound `CC(C)C[C@H]1NC(=O)[C@H](CCCN)NC(=O)[C@H](Cc2ccc(OCC(=O)O)cc2)NC(=O)[C@H](Cc2ccc(-c3ccccc3)cc2)NC(=O)[C@H](Cc2ccc(OCC(=O)O)cc2)NC(=O)[C@H](Cc2cc(F)c(F)c(F)c2)NC(=O)[C@H](CC(=O)O)NC(=O)[C@H](Cc2ccc(OCC(=O)O)cc2)NC(=O)[C@H](Cc2ccncc2)NC(=O)CSC[C@@H](C(=O)N[C@@H](CCN)C(=O)NCCCCCCCCCCC(=O)O)NC(=O)[C@H](CO)NC(=O)[C@H](C(C)(C)O)NC(=O)[C@H](CC2CCCCC2)NC(=O)[C@H](CCN)NC1=O` [Compound 2201] ({CH2CO}-[4Pal]Y(Carboxymethyl)D[Phe(3,4,5-F3)]Y(Carboxymethyl)[Bip]Y(Carboxymethyl)[Orn][dL][Dab][Cha][Val(3-OH)]SC[Dab][Aun]-OH; thioether N-14) has an IC50 of 78.4 nM.
`Cc1cccc(C[C@@H]2NC(=O)[C@H](CC(=O)O)NC(=O)[C@H](Cc3ccc(OCC(=O)O)cc3)NC(=O)[C@H](Cc3ccncc3)NC(=O)CSC[C@@H](C(=O)N[C@@H](CCN)C(=O)NCCCCCCCCCCC(=O)O)NC(=O)[C@H](CO)NC(=O)[C@H](C(C)(C)O)NC(=O)[C@H](CC3CCCCC3)NC(=O)[C@H](CCN)NC(=O)[C@@H](CC(C)C)NC(=O)[C@H](CCCN)NC(=O)[C@H](Cc3ccc(OCC(=O)O)cc3)NC(=O)[C@H](Cc3ccc(-c4ccccc4)cc3)NC(=O)[C@H](Cc3cc(F)c(F)c(F)c3)NC2=O)c1` [Compound 2202] ({CH2CO}-[4Pal]Y(Carboxymethyl)D[Phe(3-Me)][Phe(3,4,5-F3)][Bip]Y(Carboxymethyl)[Orn][dL][Dab][Cha][Val(3-OH)]SC[Dab][Aun]-OH; thioether N-14) gave an IC50 of 25.9 nM.
Work on `Cc1cccc(C[C@@H]2NC(=O)[C@H](CC(=O)O)NC(=O)[C@H](Cc3ccc(OCC(=O)O)cc3)NC(=O)[C@H](Cc3ccncc3)NC(=O)CSC[C@@H](C(=O)N[C@@H](CCN)C(=O)NCCCCCCCCCCC(=O)O)NC(=O)[C@H](CO)NC(=O)[C@H](C(C)(C)O)NC(=O)[C@H](CC3CCCCC3)NC(=O)[C@H](CCN)NC(=O)[C@@H](CC(C)C)NC(=O)[C@H](CCCN)NC(=O)[C@H](Cc3cc(F)c(F)c(F)c3)NC(=O)[C@H](Cc3ccc(-c4ccccc4)cc3)NC(=O)[C@H](Cc3ccc(OCC(=O)O)cc3)NC2=O)c1` [Compound 2203] ({CH2CO}-[4Pal]Y(Carboxymethyl)D[Phe(3-Me)]Y(Carboxymethyl)[Bip][Phe(3,4,5-F3)][Orn][dL][Dab][Cha][Val(3-OH)]SC[Dab][Aun]-OH; thioether N-14) yielded an IC50 of 41.7 nM.
`CCC[C@@H]1NC(=O)CSC[C@@H](C(=O)N[C@@H](CCN)C(=O)NCCCCCCCCCCC(=O)O)NC(=O)[C@H](CO)NC(=O)[C@H](C(C)(C)O)NC(=O)[C@H](CC2CCCCC2)NC(=O)[C@H](CCN)NC(=O)[C@@H](CC(C)C)NC(=O)[C@H](CCCN)NC(=O)[C@H](Cc2ccc(OCC(=O)O)cc2)NC(=O)[C@H](Cc2ccc(-c3ccccc3)cc2)NC(=O)[C@H](Cc2ccc(OCC(=O)O)cc2)NC(=O)[C@H](Cc2cccc(C)c2)NC(=O)[C@H](CC(=O)O)NC(=O)[C@H](Cc2ccc(OCC(=O)O)cc2)NC1=O` [Compound 2204] ({CH2CO}-[Nva]Y(Carboxymethyl)D[Phe(3-Me)]Y(Carboxymethyl)[Bip]Y(Carboxymethyl)[Orn][dL][Dab][Cha][Val(3-OH)]SC[Dab][Aun]-OH; thioether N-14) showed an IC50 of 10.6 nM.
Work on `Cc1cccc(C[C@@H]2NC(=O)[C@H](CC(=O)O)NC(=O)[C@H](Cc3ccc(OCC(=O)O)cc3)NC(=O)[C@H]([C@H](C)O)NC(=O)CSC[C@@H](C(=O)N[C@@H](CCN)C(=O)NCCCCCCCCCCC(=O)O)NC(=O)[C@H](CO)NC(=O)[C@H](C(C)(C)O)NC(=O)[C@H](CC3CCCCC3)NC(=O)[C@H](CCN)NC(=O)[C@@H](CC(C)C)NC(=O)[C@H](CCCN)NC(=O)[C@H](Cc3ccc(OCC(=O)O)cc3)NC(=O)[C@H](Cc3ccc(-c4ccccc4)cc3)NC(=O)[C@H](Cc3ccc(OCC(=O)O)cc3)NC2=O)c1` [Compound 2205] ({CH2CO}-[aThr]Y(Carboxymethyl)D[Phe(3-Me)]Y(Carboxymethyl)[Bip]Y(Carboxymethyl)[Orn][dL][Dab][Cha][Val(3-OH)]SC[Dab][Aun]-OH; thioether N-14) yielded an IC50 of 12.5 nM.
`COC[C@@H]1NC(=O)CSC[C@@H](C(=O)N[C@@H](CCN)C(=O)NCCCCCCCCCCC(=O)O)NC(=O)[C@H](CO)NC(=O)[C@H](C(C)(C)O)NC(=O)[C@H](CC2CCCCC2)NC(=O)[C@H](CCN)NC(=O)[C@@H](CC(C)C)NC(=O)[C@H](CCCN)NC(=O)[C@H](Cc2ccc(OCC(=O)O)cc2)NC(=O)[C@H](Cc2ccc(-c3ccccc3)cc2)NC(=O)[C@H](Cc2ccc(OCC(=O)O)cc2)NC(=O)[C@H](Cc2cccc(C)c2)NC(=O)[C@H](CC(=O)O)NC(=O)[C@H](Cc2ccc(OCC(=O)O)cc2)NC1=O` [Compound 2207] ({CH2CO}-S(Me)Y(Carboxymethyl)D[Phe(3-Me)]Y(Carboxymethyl)[Bip]Y(Carboxymethyl)[Orn][dL][Dab][Cha][Val(3-OH)]SC[Dab][Aun]-OH; thioether N-14) was tested, and the IC50 was 7.6 nM.

— patent US20260022142A1, “MACROCYCLIC IMMUNOMODULATORS” (Bristol-Myers Squibb Company, priority 2022, published 2026)
